Results taken from patent publication US20220326218A1, “COMPOSITION AND METHOD FOR INHIBITING BORC COMPLEX TO TREAT CANCERS WITH NF1 DEFICIENCY AND DYSREGULATED RAS SIGNALING” (THE TRUSTEES OF DARTMOUTH COLLEGE, priority 2019, published 2022).

How the values were obtained:
Assay type in all cases: cell-based, human
LC3-II = experiment: Western immunoblotting of autophagy marker LC3-I/II; conditions: U87-MG, 12 h treatment +/- 12 h HCQ co-treatment, total 24 h
Method: U87-MG cells were plated at 500,000 cells/well in 6-well plates and allowed to adhere overnight (Falcon). Medium was removed and replaced with fresh medium containing drugs or compounds for the indicated timepoints. Cells were collected after treatment by washing with PBS, harvested with trypsin plus agitation to detach cells, pelleted in a centrifuge and resuspended in PBS to wash. Cells were transferred to 1.5 mL microcentrifuge tubes, pelleted, and resuspended in RIPA lysis buffer (50 mM Tris pH 8.0, 150 mM NaCl, 1% nonidet P40, 0.5% sodium deoxycholate, and 0.05% SDS) containing 1 mM NaVO4, 1 mM NaF, 1 mM phenylmethylsulfonyl fluoride, 0.1 μg/mL antipain, 1 μM aprotinin, 100 μM benzamidine HCl, 0.1 μg/mL leupeptin, 0.1 μg/mL pepstatin, and 0.1 μg/mL soybean trypsin inhibitor. Protein was quantified using a BCA assay kit (Pierce). 50 μg of protein was prepared in 1× Laemmli sample buffer (50 mM Tris pH 6.8, 0.02% w/v bromophenol blue, 2% w/v SDS, 10% v/v glycerol, 1% v/v beta-mercaptoethanol, 12.5 mM EDTA) and separated by SDS-PAGE on a 4-15% polyacrylamide gradient gel (Bio-Rad). […]

mitochondria = experiment: MitoTracker Red CMXRos staining of the mitochondrial network; conditions: U87-MG, 24 h; 2 μM Y102, 50 μM HCQ
Method: For MitoTracker Red CMXRos staining, 30 minutes prior to collection medium was removed and replaced with medium containing MitoTracker Red CMXRos at a final concentration of 100 nM (Molecular Probes). Following staining, cells were washed with PBS and fixed with 4% paraformaldehyde without methanol. Cells were washed with PBST, then permeabilized with 0.5% Triton X-100 in PBS. When co-staining with another marker, the staining procedure continued with the blocking step; otherwise, cells were stained with 0.33 μg/mL DAPI in PBS and mounted onto slides in ProLong Gold (Life Technologies).

[1] = tested on: 8-hydroxyguanosine (8-OHG); experiment: Immunofluorescence staining for oxidative stress marker 8-OHG; conditions: U87-MG, 2 μM, 24 h
Method: (§1) U87-MG cells were plated at a concentration of 50,000 cells/well onto precoated poly-D-lysine (PDL) coverslips (Neuvitro) in 24-well plates (Falcon) and allowed to adhere overnight. Medium was removed and replaced with treatment-laced media normalized to DMSO, and cells were treated for the indicated timepoints. At the time of collection, cells were washed with PBS and fixed with 4% paraformaldehyde without methanol (EMS) or 100% methanol (Fischer). Coverslips were washed with Tween20-containing PBS (PBST; Fischer). Following permeabilization with 0.5% Triton X-100 in PBS (Fischer), coverslips were blocked for 1 h at room temperature in IF Buffer (0.05% azide, 0.2% Triton X-100, 2% Normal Goat Serum or, for 8-OHG, Normal Donkey Serum). The following primary antibodies were used for 1 hour at room temperature unless specified: AlexaFluor 488 pre-conjugated anti-γ-H2AX (N1-431) mouse monoclonal (30 minutes; BD Biosciences), anti-cleaved caspase 3 (Asp175) rabbit polyclonal (Cell Signaling), anti-SQSTM1/p62 (D-3) mouse monoclonal (Santa Cruz), anti-8-Hydroxyguanosine goat polyclonal (1:200; Millipore), anti-LAMP1 (D4O1S) mouse monoclonal (O/N at 4° C.; Cell Signaling), anti-BNIP3L/Nix (D4R4B) rabbit monoclonal (O/N at 4° C.; Cell Signaling), anti-FLAG (M2) mouse monoclonal (2 hours at 37° C.; Sigma-Aldrich). […]

BNIP3L/Nix = experiment: Immunofluorescence staining for mitophagy receptor BNIP3L/Nix; conditions: U87-MG, 24 h; 2 μM Y102, 100 μM CoCl2; CoCl2 and Y102 compared with each other
Method: as §1

lysosomes = experiment: Immunofluorescence staining of lysosomes (LAMP1) and mitochondria (Tom20); conditions: U87-MG, 2 μM, 16 h
Method: as §1, with “Sigma-Aldrich). Following washes with PBST, cells were stained with goat anti-rabbit or goat anti-mouse AlexaFluor 488 or AlexaFluor 594 (or, for 8-OHG, donkey anti-goat AlexaFluor 488) secondary antibody at 1:800 for 1 hour at room temperature (Jackson ImmunoResearch).” for “Sigma-Aldrich).”
All confocal images were acquired on a Nikon AIRSi confocal microscope equipped with a 60× 1.4 NA oil objective, a DU4 detector unit, and Nikon Elements software. Otherwise, images were acquired on a Zeiss Axio Imager.Z1 equipped with a Zeiss EC Plan-NEOFLUAR 40× 1.3 NA oil objective, a Zeiss AxioCam MRm camera, a Lumen Dynamics Series 120 Q X-Cite Fluorescence Illuminator, and AxioVision SE64 Rel. […]

For `Cn1cnnc1S/C=C/C(=O)c1ccc(F)cc1` [Y102], the “LC3-II accumulation (western immunoblotting)” value (LC3-II) was “did not result in LC3-II accumulation”, the “mitochondrial phenotype (perinuclear clustering)” value (mitochondria) was “perinuclear clustering of the mitochondria” and the “8-OHG compared to DMSO” value [1] was “increase”. For the same compound, the “localization of 8-OHG oxidative stress-induced damage” value [1] was “both nuclear and mitochondrial DNA”, the “expression/localization of BNIP3L/Nix on the mitochondria compared to DMSO control” value (BNIP3L/Nix) was “increase” and the localization of lysosomes (lysosomes; LAMP1) was “perinuclear region”. The lysosome expression (lysosomes; LAMP1) was “increase” and the “colocalization between lysosomes and mitochondria” value (lysosomes; LAMP1/Tom20, ratiometric analysis, confocal) was “observed”.
